Test system: HVA calcium channel (high-voltage activated calcium ion channel)
Type: cell-based, rat

COC(=O)C1=C(C)NC(C)=C(C(=O)OC)C1c1ccccc1[N+](=O)[O-] [Nifedipine]
current after loading: −734.31 pA | current before loading: −1471.35 pA | inhibition rate (10 μM): 50.09%

Reference: patent US10246490B2 (priority 2014, dated 2019)
